Test: xn = mol fraction of the nth substance listed
Conditions: 101.33 kPa, Liquid, Vibrating tube method

CCCCCCC [heptane] + CCCCCCN
x2 = 0
Conditions	mass density [kg/m3]
288.15 K	687.954
293.15 K	683.733
298.15 K	679.494
303.15 K	675.229
308.15 K	670.941
313.15 K	666.621
318.15 K	662.273
323.15 K	657.896

CCCCO [butan-1-ol] + CCCCCCN
x1 = 1
Conditions	mass density [kg/m3]
288.15 K	813.373
293.15 K	809.573
298.15 K	805.762
303.15 K	801.923
308.15 K	798.053
313.15 K	794.147
318.15 K	790.231
323.15 K	786.238

CCCCCCN [1-hexanamine] + CCCCCCC
mass density [kg/m3]
Conditions	288.15 K	293.15 K	298.15 K	303.15 K	308.15 K	313.15 K	318.15 K	323.15 K
x1 = 0.0497	691.084	686.872	682.638	678.375	674.087	669.766	665.416	661.034
x1 = 0.0712	692.472	688.259	684.023	679.762	675.473	671.155	666.804	662.428
x1 = 0.1	694.376	690.164	685.929	681.666	677.379	673.063	668.716	664.339
x1 = 0.1394	697.059	692.841	688.603	684.341	680.052	675.736	671.39	667.016
x1 = 0.2017	701.458	697.235	692.989	688.722	684.431	680.114	675.766	671.395
x1 = 0.3011	708.825	704.586	700.331	696.055	691.758	687.436	683.088	678.716
x1 = 0.4001	716.491	712.241	707.974	703.691	699.388	695.063	690.714	686.344
x1 = 0.5105	725.411	721.153	716.879	712.593	708.285	703.959	699.61	695.241
x1 = 0.5996	732.829	728.568	724.292	720.004	715.698	711.371	707.026	702.664
x1 = 0.6802	739.756	735.495	731.219	726.929	722.623	718.301	713.958	709.598
x1 = 0.7495	745.832	741.569	737.294	733.009	728.705	724.386	720.046	715.689
x1 = 0.7984	750.175	745.914	741.641	737.357	733.056	728.74	724.406	720.058
x1 = 0.8484	754.693	750.434	746.164	741.883	737.584	733.272	728.943	724.594
x1 = 0.8999	759.4	755.143	750.877	746.597	742.304	737.996	733.672	729.332
x1 = 0.9467	763.694	759.441	755.177	750.901	746.613	742.31	737.99	733.656
x1 = 1	768.637	764.385	760.128	755.856	751.573	747.276	742.962	738.636

CCCCCCN [1-hexanamine] + CCCCO
mass density [kg/m3]
Conditions	288.15 K	293.15 K	298.15 K	303.15 K	308.15 K	313.15 K	318.15 K	323.15 K
x2 = 0	768.637	764.385	760.128	755.856	751.573	747.276	742.962	738.636
x2 = 0.0503	771.284	767.06	762.826	758.576	754.314	750.035	745.737	741.427
x2 = 0.1108	774.579	770.381	766.172	761.947	757.705	753.444	749.165	744.868
x2 = 0.1615	777.172	772.994	768.799	764.593	760.366	756.118	751.85	747.565
x2 = 0.2004	779.327	775.161	770.98	766.783	762.567	758.331	754.072	749.795
x2 = 0.2455	781.707	777.556	773.386	769.201	764.996	760.77	756.52	752.247
x2 = 0.3004	784.53	780.391	776.235	772.062	767.867	763.651	759.41	755.147
x2 = 0.4	789.735	785.619	781.483	777.33	773.155	768.956	764.732	760.481
x2 = 0.4802	793.847	789.75	785.637	781.501	777.345	773.162	768.953	764.717
x2 = 0.6294	800.788	796.75	792.692	788.612	784.508	780.377	776.215	772.02
x2 = 0.6999	803.655	799.656	795.637	791.594	787.526	783.429	779.299	775.138
x2 = 0.75	805.487	801.517	797.53	793.517	789.481	785.41	781.306	777.172
x2 = 0.7997	807.332	803.397	799.441	795.46	791.45	787.411	783.336	779.228
x2 = 0.8495	808.927	805.024	801.1	797.154	793.178	789.169	785.123	781.043
x2 = 0.8994	810.567	806.697	802.808	798.893	794.95	790.973	786.956	782.9
x2 = 0.9504	812.092	808.261	804.406	800.528	796.618	792.674	788.687	784.663
